In paper PMC10714400, “Antimicrobial Peptide–Peptoid Hybrids with and without Membrane Disruption” (ACS Infectious Diseases, 2023):
Read-outs that look alike come from different tables or passages of the source.

Columns and labels:
A. baumannii ATCC19606 = settings: Table S2
Experimental: (§1) Antimicrobial activity was assayed for all the peptide–peptoids against P. aeruginosa PAO1, K. pneumoniae NCTC418, E. coli W3110, A. baumannii ATCC 19606, methicillin-resistant S. aureus COL (MRSA), and for selected peptides on P. aeruginosa PA14 and the polymyxin-B-resistant derivatives PA14 4.13, PA14 4.18, PA14 2P4, as well as the clinical isolates ZEM-1A and ZEM9A, K. pneumoniae OXA-48, S. aureus Newman, Enterobacter cloacae, Stenotrophomonas maltophilia, Burkholderia cenocepacia, and Staphylococus epidermidis. To determine the Minimal Inhibitory Concentration (MIC), the Broth Microdilution method was used.[72] A colony of bacteria was picked and grown in LB medium overnight at 37 °C.
(§2) To each well was finally added 4 μL of the diluted bacterial suspension (see above), corresponding to approximately 5 × 10^5 CFU. For each test, two columns of the plate were kept for sterility control (medium only), growth control (medium with bacterial inoculum, no compound). The positive control, Polymyxin B (starting with a concentration of 16 μg/mL) in MH medium with bacterial inocula, was introduced in the two lines of the plate. The plates were incubated at 37 °C for ca. 18 h under static conditions. Next, 15 μL of 3-(4,5-dimethylthiazol-2-yl)-2,5-diphenyltetrazolium bromide (MTT)[73] (1 mg/mL in sterilized MilliQ deionized water) were added to each well, and the plates were incubated for 20–30 min at room temperature. The minimal inhibitory concentration (MIC) was defined as the lowest concentration of the compound that inhibits the visible growth of the tested bacteria (yellow) with the unaided eye.

E. cloacae = test system: E. cloacae
Experimental: as §1, §2

E. coli W3110 = test system: E. coli W3110
Experimental: as §1, §2

K. pneumoniae NCTC418 = settings: Table S2
Experimental: as §1, §2

K. pneumoniae OXA-48 = test system: K. pneumoniae OXA-48
Experimental: as §1, §2

P. aeruginosa PAO1 [1] = test system: P. aeruginosa PAO1
Experimental: as §1, §2

PA14 2P4 (pmrB) = settings: Table S3; […] MH at pH 8.5
Experimental: as §1, §2

PA14 4.13 (phoQ) = test system: PA14 4.13 (phoQ)
Experimental: as §1, §2

PA14 4.18 (pmrB) = test system: PA14 4.18 (pmrB)
Experimental: as §1, §2

S. aureus COL (MRSA) = test system: S. aureus COL (MRSA)
Experimental: as §1, §2

[2] = test system: ZEM-1A (clinical MDR P. aeruginosa isolate)
Experimental: as §1, §2

[3] = test system: ZEM9A (clinical MDR P. aeruginosa isolate)
Experimental: as §1, §2

[4] = test system: human red blood cells (hRBC); assay: Minimum hemolytic concentration (MHC); assay type: cell-based; settings: hRBC, 10 mM phosphate buffer, 150 mM NaCl, pH 7.4, 25 °C, 4 h
Description: We also measured minimal hemolysis concentrations (MHC) on human red blood cells by serial 2-fold dilution as an indication of toxicity against eukaryotic cells (Table 1).

B. cenocepacia = settings: MH pH 7.4, 16–20 h at 37 °C
Experimental: as §1
as §2, with “The plates were incubated at 37 °C for ca. 18 h under static conditions.” left out

P. aeruginosa PA14 = test system: P. aeruginosa PA14
Experimental: as §1
as §2, with “The plates were incubated at 37 °C for ca. 18 h under static conditions.” left out

S. aureus Newman = test system: S. aureus Newman
Experimental: as §1
as §2, with “The plates were incubated at 37 °C for ca. 18 h under static conditions.” left out

S. epidermis = test system: S. epidermis
Experimental: as §1
as §2, with “The plates were incubated at 37 °C for ca. 18 h under static conditions.” left out

S. maltophilia = test system: S. maltophilia
Experimental: as §1
as §2, with “The plates were incubated at 37 °C for ca. 18 h under static conditions.” left out

P. aeruginosa PAO1 [5] = assay: Bacterial count after treatment, before TEM sample preparation; assay type: cell-based, Pseudomonas aeruginosa; settings: P. aeruginosa PAO1, […] MH pH 8.5, 10x MIC
Experimental: (§3) Just before the samples were further prepared for the microscopy, surviving bacteria were quantified by plating 10-fold dilutions of samples in sterilized normal saline (NaCl 0.9%) on LB agar plates. […] The assay was performed in triplicate. Each bacteria sample was centrifuged at 12,000 rpm for 3 min, and the supernatant was discarded. The samples were then further processed and imaged using our previously described protocol.[64]
8. Transmission electron microscopy (TEM)
Table S4: Bacterial counts, 2 hours after treatment, before TEM sample preparation. Data represents triplicates.
Bacteria count after treatment at 10x MIC and 2 h of incubation at 37 °C
Control (non-treated cells) 1 × 10^8 CFU (100)

P. aeruginosa PAO1 [6] = assay: Transmission electron microscopy (TEM); assay type: cell-based, Pseudomonas aeruginosa; settings: P. aeruginosa PAO1, 10 × MIC, […] MH at pH 8.5, 2 h at 37 °C
Experimental: Scale bars are 500 nm and 1 μm. Red arrows: membrane perturbations. Blue arrows: intracellular aggregation. Yellow arrows: empty area within the cell.
as §3

Polymyxin B [PMB, reference compound] was tested, and the “MIC A. baumannii ATCC19606 […] 7.4” value (A. baumannii ATCC19606; […] MH, pH 7.4) was 0.5 µg/mL, the “MIC A. baumannii ATCC19606 […] 8.5” value (A. baumannii ATCC19606; […] MH, pH 8.5) was 0.25 µg/mL and the “MIC A. baumannii ATCC19606 Full MH 7.4” value (A. baumannii ATCC19606; full MH, pH 7.4) was 0.25 µg/mL. The “MIC A. baumannii ATCC19606 Full MH 8.5” value (A. baumannii ATCC19606; full MH, pH 8.5) was 0.25 µg/mL, the “MIC E. cloacae” value (E. cloacae; MH pH 7.4, 16–20 h at 37 °C) was 0.5 to 1 µg/mL and the “MIC E. cloacae” value (E. cloacae; Table S3, […] MH at pH 8.5) was 1 to 2 µg/mL. The “Antibacterial activity as a function of NaCl concentration” value (E. coli W3110; E. coli W3110, […] MH at pH 8.5, up to 300 mM NaCl) was “less affected”, the “MIC E. coli W3110 […] 7.4” value (E. coli W3110; Table S2, […] MH, pH 7.4) was 0.5 µg/mL and the “MIC E. coli W3110 […] 8.5” value (E. coli W3110; Table S2, […] MH, pH 8.5) was 0.25 µg/mL. For the same substance, the “MIC E. coli W3110 Full MH 7.4” value (E. coli W3110; Table S2, full MH, pH 7.4) was 0.25 µg/mL, the “MIC E. coli W3110 Full MH 8.5” value (E. coli W3110; Table S2, full MH, pH 8.5) was < 0.1 µg/mL and the “MIC K. pneumoniae NCTC418 […] 7.4” value (K. pneumoniae NCTC418; […] MH, pH 7.4) was 0.5 µg/mL. The “MIC K. pneumoniae NCTC418 […] 8.5” value (K. pneumoniae NCTC418; […] MH, pH 8.5) was 0.5 µg/mL, the “MIC K. pneumoniae NCTC418 Full MH 7.4” value (K. pneumoniae NCTC418; full MH, pH 7.4) was 0.25 µg/mL and the “MIC K. pneumoniae NCTC418 Full MH 8.5” value (K. pneumoniae NCTC418; full MH, pH 8.5) was 0.25 µg/mL. The “MIC K. pneumoniae OXA-48” value (K. pneumoniae OXA-48; MH pH 7.4, 16–20 h at 37 °C) was 1 to 2 µg/mL, the “MIC K. pneumoniae OXA-48” value (K. pneumoniae OXA-48; Table S3, […] MH at pH 8.5) was 1 to 2 µg/mL and the “Antibacterial activity as a function of NaCl concentration” value (P. aeruginosa PAO1 [1]; P. aeruginosa PAO1, […] MH at pH 8.5, up to 300 mM NaCl) was “less affected”. For the same substance, the “MIC P. aeruginosa PAO1 […] 7.4” value (P. aeruginosa PAO1 [1]; Table S2, […] MH, pH 7.4) was 0.5 µg/mL, the “MIC P. aeruginosa PAO1 […] 8.5” value (P. aeruginosa PAO1 [1]; Table S2, […] MH, pH 8.5) was 0.5 µg/mL and the “MIC P. aeruginosa PAO1 Full MH 7.4” value (P. aeruginosa PAO1 [1]; Table S2, full MH, pH 7.4) was 0.5 µg/mL. The “MIC P. aeruginosa PAO1 Full MH 8.5” value (P. aeruginosa PAO1 [1]; Table S2, full MH, pH 8.5) was 0.25 µg/mL, the “MIC P. aeruginosa PAO1 […]” value (P. aeruginosa PAO1 [1]; diluted MH ([…] MH, pH 8.5) per Table 1 footnote b, 16–20 h at 37 °C) was 0.5 µg/mL and the “MIC P. aeruginosa PA14 2P4” value (PA14 2P4 (pmrB)) was 1 µg/mL. The “MIC PA14 4.13 (phoQ)” value (PA14 4.13 (phoQ); MH pH 7.4, 16–20 h at 37 °C) was 0.25 µg/mL, the “MIC P. aeruginosa PA14 4.13” value (PA14 4.13 (phoQ); Table S3, […] MH at pH 8.5) was 0.5 µg/mL and the “MIC PA14 4.18 (pmrB)” value (PA14 4.18 (pmrB); MH pH 7.4, 16–20 h at 37 °C) was 1 µg/mL. For the same substance, the “MIC P. aeruginosa PA14 4.18” value (PA14 4.18 (pmrB); Table S3, […] MH at pH 8.5) was 0.25 µg/mL, the “MIC S. aureus COL (MRSA) […] 7.4” value (S. aureus COL (MRSA); Table S2, […] MH, pH 7.4) was 8 µg/mL and the “MIC S. aureus COL (MRSA) […] 8.5” value (S. aureus COL (MRSA); Table S2, […] MH, pH 8.5) was 1 µg/mL. For the same substance, the “MIC S. aureus COL (MRSA) Full MH 7.4” value (S. aureus COL (MRSA); Table S2, full MH, pH 7.4) was > 64 µg/mL, the “MIC S. aureus COL (MRSA) Full MH 8.5” value (S. aureus COL (MRSA); Table S2, full MH, pH 8.5) was 2 µg/mL and the “MIC S. aureus COL (MRSA) Full” value (S. aureus COL (MRSA); full MH, pH 7.4, 16–20 h at 37 °C) was >32 µg/mL. For the same substance, the “MIC ZEM-1A” value ([2]; MH pH 7.4, 16–20 h at 37 °C) was <0.13 µg/mL, the “MIC P. aeruginosa ZEM-1A” value ([2]; Table S3, […] MH at pH 8.5) was 1 µg/mL and the “MIC ZEM9A” value ([3]; MH pH 7.4, 16–20 h at 37 °C) was 2 µg/mL. For the same substance, the “MIC P. aeruginosa ZEM9A” value ([3]; Table S3, […] MH at pH 8.5) was 1 to 2 µg/mL, the MHC ([4]; Table S2) was > 2000 µg/mL and the MHC [4] was >2000 µg/mL. The “MIC B. cenocepacia” value (B. cenocepacia) was >16 µg/mL, the “MIC P. aeruginosa PA14” value (P. aeruginosa PA14; MH pH 7.4, 16–20 h at 37 °C) was <0.13 µg/mL and the “MIC P. aeruginosa PA14” value (P. aeruginosa PA14; Table S3, […] MH at pH 8.5, 16-20 hours at 37 °C) was 0.25 µg/mL. For the same substance, the “MIC S. aureus Newman” value (S. aureus Newman; MH pH 7.4, 16–20 h at 37 °C) was >16 µg/mL, the “MIC S. aureus Newman” value (S. aureus Newman; Table S3, […] MH at pH 8.5) was 2 µg/mL and the “MIC S. epidermis” value (S. epidermis; MH pH 7.4, 16–20 h at 37 °C) was >16 µg/mL. The “MIC S. epidermis” value (S. epidermis; Table S3, […] MH at pH 8.5) was 2 µg/mL, the “MIC S. maltophilia” value (S. maltophilia; MH pH 7.4, 16–20 h at 37 °C) was 0.5 µg/mL and the “MIC S. maltophilia” value (S. maltophilia; Table S3, […] MH at pH 8.5) was 2 µg/mL. For the same substance, the “Bacteria count after treatment at 10x MIC and 2 h of incubation at 37 °C (% of control)” value (P. aeruginosa PAO1 [5]) was 1 % of control and the “TEM micrographs, changes in treated bacteria” value (P. aeruginosa PAO1 [6]) was “blebbing and a disrupted outer membrane”.
